We go through one molecule from patent US20150307841A1, “Composition for Promoting Differentiation and Proliferation of Neural Stem Cell and Neural Precursor Cell” (priority 2014, published 2015).

Each structure is given as a SMILES string.

Experiment [1] has as its system memory-deficient model rats. Put plainly: Y-maze test in ibotenic acid-induced memory-deficient model rats. The format is in vivo, rat. The text has this:
Ibotenic acid is a neurotoxin present in mushrooms and is known to cause powerful damage to neurons when directly injected into the brain of mice or rats. In particular, because senile plaques and neuronal cell death appear in the entorhinal cortex and hippocampus in early Alzheimer's disease patients (Ueki A et al. J Neurol Sci, 1994), memory-deficient model rats were generated by injecting ibotenic acid (IBO) into the entorhinal cortex. The surgical protocol followed Heo H et al.'s method (J Ethnopharmacol, 2009) with some modifications. In the model animals, the injection of ibotenic acid induces cell death not only in the entorhinal cortex but also in the CA and DG regions of the hippocampus and impairs hippocampus-related learning and memory abilities.
The 6-week-old rats were anesthetized with equithesin (350 mM pentobarbital sodium, 250 mM chloral hydrate, 85 mM MgSO4 and 40% propylene glycol in 10% ethanol, 2 mL/kg). To induce cell death in the dentate gyrus and hippocampus in addition to the entorhinal cortex, ibotenic acid (1.5 μL per animal, 1 mg/mL) was injected into the entorhinal cortex as follows. The rat was placed in a stereotaxic device (Stoelting Co., Wood Dale, Ill., USA) with the incisor bar 3.4 mm below the interaural line. The needle was positioned 10° right to the midsaggital plane. Then, ibotenic acid was injected at 3 locations into the entorhinal cortex and medial entorhinal cortex at a rate of 0.35 μL/min (first, AP: 8.4 mm, ML: 4.8 mm, DV: 4.6-4.8 mm; second, AP: 8.4 mm, ML: 4.8 mm, DV: 2.6-2.8 mm; third, AP: 8.8 mm, ML: 3.65 mm, DV: 4.8 mm). […]
The maze was made of black-colored acryl and was positioned at equal angles. […] Arm entry was recorded when the hind paws were completely placed in the arm. Consecutive entry into 3 arms in an alternative order was defined as successive entries on overlapping triplet sets, and alternation percentage was calculated as the ratio of actual to possible alternations (defined as the total number of arm entries minus 2), multiplied by 100. […]

Experiment [2] has as its system hippocampal neural precursor cells (NPCs). Nature of the experiment: Immunoblotting assay of VGluT1, ChAT, GAD65/67 in cultured hippocampal neural precursor cells. In kind it is cell-based, rat. The text has this: Pregnant Sprague-Dawley rats purchased from Orient Animal Breeding Center (a branch of Charles River Laboratories, Gyeonggi-do, Korea) were sacrificed by exposing to CO2 inhalation. Hippocampal neural precursor cells (NPCs) were isolated from the brain of the E16 rat embryo according to the method of Shin M H et al. (Exp Mol Med, 2002) with slight modifications.
Briefly, hippocampi were aseptically dissected from the embryonic forebrain, mechanically dissociated in Ca^2+/Mg^2+-free Hank's balanced salt solution (HBSS) and then plated at 7×10^5 cells/cm^2 on 60-mm dishes pre-coated with 15 μg/mL poly-L-ornithine and 1 μg/mL fibronectin. The neural precursor cells were cultured in serum-free N2 media supplemented with 10 ng/mL bFGF in 5% CO2 for 3 days and then detached using 0.05% trypsin-ethylenediaminetetraacetic acid (EDTA). The neural precursor cells were plated on 12-mm cover glasses (Bellco Co., Vineland, N.J., USA) and cultured one more day in N2 media supplemented with 10 ng/mL bFGF in 5% CO2 (primary culturing).
Following the primary culturing in (1), the cultured hippocampal neural precursor cells were lysed in 80 μL of a cold RIPA buffer containing a protease inhibitor cocktail for immunoblotting assay of VGluT1, ChAT and GAD65/67. After centrifugation for 10 minutes at 13,000×g, the supernatants were divided into Eppendorf tubes and stored at −80° C.
Protein quantification assay was performed using a Bradford protein assay kit (Bio-Rad, Hercules, Calif., USA). […]
The number of the VGluT1- and GAD-positive cells in the brain slice samples 1 week and 4 weeks after the administration of soyasaponin I was presented per microscopic field (×400-VGluT1, ×800-GAD67) and the number of the ChAT-positive cells was presented per each hippocampal region (10-12 confocal laser microscopic fields). […] Western blotted membranes were analyzed using the multi-gauge, bio-imaging program on LAS-4000 Mini (Fujifilm Life Science, Stamford, Conn., USA). […]

Take `C[C@@H]1O[C@@H](O[C@H]2[C@H](O[C@H]3[C@H](O[C@H]4CC[C@@]5(C)[C@@H](CC[C@]6(C)[C@@H]5CC=C5[C@@H]7CC(C)(C)C[C@@H](O)[C@]7(C)CC[C@]56C)[C@@]4(C)CO)O[C@H](C(=O)O)[C@@H](O)[C@@H]3O)O[C@H](CO)[C@H](O)[C@@H]2O)[C@H](O)[C@H](O)[C@H]1O` [soyasaponin I]: the “Y-maze number of total entries” value in experiment [1] (10 mg/kg oral, tests 2 weeks after administration (Experimental Example 2)) is reported as “not significantly different”. The “Y-maze spontaneous alterations (decreased memory of IBO group)” value in experiment [1] (Experimental Example 1, tests immediately after administration, group 1 (Soya-I)) is listed as “improved”. The “Y-maze spontaneous alterations, increase compared with the non-soyasaponin I-administered group (IBO)” value in experiment [1] (soyasaponin I 10 mg/kg oral, tests 2 weeks after administration (Experimental Example 2)) was 78.57%. Also, the “Expression level of ChAT protein compared to the normal group” value in experiment [2] (0.5, 1, 2 μM test groups, normalized to β-actin and vehicle) was found to be 1.9 fold. Further, in experiment [2] (treatment for 6 days), the “Expression of GAD65/67 protein” value is “increased relatively little” and the “Expression of VGluT1 protein” value is recorded as “increased relatively little”.
